From US4173629A, “Antibiotic S 31794/F-1” (Sandoz Ltd., priority 1975, dated 1979)
≈ marks a conversion by molar mass, not a printed value. *1 amine or outer side, *2 acyl side, *3 side chain or, on linkers, in order; H or OH if unused. Where a SMILES comes first, the peptide text is derived from it. Bridges are numbered along the chain shown (N, C = ends). [ ]: non-standard residue; d: D form. The star is where a group is joined. Orn(4R-OH,5R-OH) = O=C([C@H](C[C@@H](O)[C@@H](O)N[*:3])N[*:1])[*:2]; hTyr(3S-OH,4S-OH) = N[C@H](C(=O)O)[C@H](O)[C@@H](O)c1ccc(O)cc1; Pro(3S-OH,4S-Me) = C[C@H]1CN[C@H](C(=O)O)[C@H]1O; Gln(3R-OH) = NC(=O)C[C@@H](O)[C@H](N)C(=O)O; Hyp = O=C(O)[C@@H]1C[C@@H](O)CN1; Myristoyl = CCCCCCCCCCCCCC(=O)*

Assays:
[1] = test system: yeast and fungi, particularly Candida strains; assay: activity spectrum, yeast and fungi; type: cell-based
Method: (§1) The MIC (minimum inhibiting concentration) values are obtained in the well known series dilution test. The incubation was effected in a malt extract medium (2%) having a pH of 5.2-5.4 at 27° C. for 48 to 72 hours. The test strains are well known and have been deposited in the fungi collection of the firm Sandoz, Basel, where they are available for examination.

[2] = test system: Curvularia lunata; assay: MIC, series dilution test; type: cell-based; conditions: malt extract medium (2%), pH 5.2-5.4, 27° C., 48 to 72 hours
Method: as §1

[3] = test system: Candida albicans; assay: MIC, series dilution test; type: cell-based; conditions: malt extract medium (2%), pH 5.2-5.4, 27° C., 48 to 72 hours
Method: as §1

[4] = test system: Candida albicans 5897; assay: MIC, series dilution test; type: cell-based; conditions: malt extract medium (2%), pH 5.2-5.4, 27° C., 48 to 72 hours
Method: as §1

[5] = test system: Candida albicans Blast. res.; assay: MIC, series dilution test; type: cell-based; conditions: malt extract medium (2%), pH 5.2-5.4, 27° C., 48 to 72 hours
Method: as §1

[6] = test system: Aspergillus niger; assay: MIC, series dilution test; type: cell-based; conditions: malt extract medium (2%), pH 5.2-5.4, 27° C., 48 to 72 hours
Method: as §1

[7] = test system: Candida albicans 439; assay: MIC, series dilution test; type: cell-based; conditions: malt extract medium (2%), pH 5.2-5.4, 27° C., 48 to 72 hours
Method: as §1

[8] = test system: Aspergillus fumigatus; assay: MIC, series dilution test; type: cell-based; conditions: malt extract medium (2%), pH 5.2-5.4, 27° C., 48 to 72 hours
Method: as §1

[9] = test system: Sporotrichum schenkii; assay: MIC, series dilution test; type: cell-based; conditions: malt extract medium (2%), pH 5.2-5.4, 27° C., 48 to 72 hours
Method: as §1

[10] = test system: Blastomyces dermatitidis; assay: MIC, series dilution test; type: cell-based; conditions: malt extract medium (2%), pH 5.2-5.4, 27° C., 48 to 72 hours
Method: as §1

[11] = test system: Trichophyton mentagrophytes; assay: MIC, series dilution test; type: cell-based; conditions: malt extract medium (2%), pH 5.2-5.4, 27° C., 48 to 72 hours
Method: as §1

[12] = test system: Neurospora crassa; assay: MIC, series dilution test; type: cell-based; conditions: malt extract medium (2%), pH 5.2-5.4, 27° C., 48 to 72 hours
Method: as §1

[13] = test system: Trichophyton quinckeanum; assay: MIC, series dilution test; type: cell-based; conditions: malt extract medium (2%), pH 5.2-5.4, 27° C., 48 to 72 hours
Method: as §1

[14] = test system: Candida albicans H 12; assay: MIC, series dilution test; type: cell-based; conditions: malt extract medium (2%), pH 5.2-5.4, 27° C., 48 to 72 hours
Method: as §1

[15] = test system: Microsporum canis; assay: MIC, series dilution test; type: cell-based; conditions: malt extract medium (2%), pH 5.2-5.4, 27° C., 48 to 72 hours
Method: as §1

[16] = test system: Candida tropicalis CK 4; assay: MIC, series dilution test; type: cell-based; conditions: malt extract medium (2%), pH 5.2-5.4, 27° C., 48 to 72 hours
Method: as §1

[17] = test system: Candida krusei; assay: MIC, series dilution test; type: cell-based; conditions: malt extract medium (2%), pH 5.2-5.4, 27° C., 48 to 72 hours
Method: as §1

[18] = test system: Candida tropicalis; assay: MIC, series dilution test; type: cell-based; conditions: malt extract medium (2%), pH 5.2-5.4, 27° C., 48 to 72 hours
Method: as §1

[19] = Solubility; type: physicochemical
[20] = test system: usual gram-positive and gram-negative bacteria; assay: activity spectrum, bacteria; type: cell-based
[21] = Stability; type: physicochemical

CCCCCCCCCCCCCC(=O)N[C@H]1C[C@@H](O)[C@@H](O)NC(=O)[C@@H]2[C@@H](O)[C@@H](C)CN2C(=O)[C@H]([C@H](O)CC(N)=O)NC(=O)[C@H]([C@H](O)[C@@H](O)c2ccc(O)cc2)NC(=O)[C@@H]2C[C@@H](O)CN2C(=O)[C@H]([C@@H](C)O)NC1=O [S 31794/F-1] (Myristoyl-[Orn(4R-OH,5R-OH)]T[Hyp][hTyr(3S-OH,4S-OH)][Gln(3R-OH)][Pro(3S-OH,4S-Me)]; lactam 1-C)
effect against yeast and fungi, particularly against Candida strains [1]: pronounced effect
MIC (minimum inhibiting concentration) [2]: > 100 µg/mL
MIC (minimum inhibiting concentration) [3]: 0.3 µg/mL (≈ 0.285 µM)
MIC (minimum inhibiting concentration) [4]: 0.3 µg/mL (≈ 0.285 µM)
MIC (minimum inhibiting concentration) [5]: 0.03 µg/mL (≈ 0.0285 µM)
MIC (minimum inhibiting concentration) [6]: 100 µg/mL (≈ 95.1 µM)
MIC (minimum inhibiting concentration) [7]: 0.03 µg/mL (≈ 0.0285 µM)
MIC (minimum inhibiting concentration) [8]: 32 µg/mL (≈ 30.4 µM)
MIC (minimum inhibiting concentration) [9]: > 100 µg/mL
MIC (minimum inhibiting concentration) [10]: 100 µg/mL (≈ 95.1 µM)
MIC (minimum inhibiting concentration) [11]: 32 µg/mL (≈ 30.4 µM)
MIC (minimum inhibiting concentration) [12]: > 100 µg/mL
MIC (minimum inhibiting concentration) [13]: > 100 µg/mL
MIC (minimum inhibiting concentration) [14]: 0.3 µg/mL (≈ 0.285 µM)
MIC (minimum inhibiting concentration) [15]: 100 µg/mL (≈ 95.1 µM)
MIC (minimum inhibiting concentration) [16]: 0.01 µg/mL (≈ 0.00951 µM)
MIC (minimum inhibiting concentration) [17]: 1 µg/mL (≈ 0.951 µM)
MIC (minimum inhibiting concentration) [18]: 0.3 µg/mL (≈ 0.285 µM)
Solubility ([19]; in methanol, ethanol, pyridine and dimethyl sulphoxide): easily soluble
Solubility ([19]; in water, chloroform, ethyl acetate, diethyl ether, benzene and hexane): difficulty soluble
effect against the usual gram-positive and gram-negative bacteria [20]: does not exhibit a significant effect
Stability ([21]; alkaline or strong acidic conditions): decomposes, losing its anti-fungal activity
Stability ([21]; aqueous methanol at pH 3-7.5): stable
